Source: article PMC3027353 (Journal of nuclear medicine : official publication, Society …, 2010)
Read-outs that look alike come from different tables or passages of the source.

Assays:
TSPO [1] = molecular target: T1, TSPO (Rattus norvegicus, UniProt P16257); details: cited from earlier work
TSPO [2] = molecular target: T1, TSPO; assay: Radioligand displacement of [^3H]PK 11195 by PBR06 in C6 glioma cell lysate; format: binding; details: C6 glioma cell line homogenates/lysate; non-linear regression; triplicate
TSPO [3] = molecular target: T1, TSPO; format: in vivo; details: for K1/k2: 3-compartment, 4-rate constant model; for VT (total distribution volume): from graphical analysis, N = 4
TSPO [4] = molecular target: T1, TSPO; details: in vivo
[5] = HPLC radiometabolite analysis of arterial plasma after [^18F]PBR06 injection; format: in vivo, rat

T1 sequence (P16257 whole entry): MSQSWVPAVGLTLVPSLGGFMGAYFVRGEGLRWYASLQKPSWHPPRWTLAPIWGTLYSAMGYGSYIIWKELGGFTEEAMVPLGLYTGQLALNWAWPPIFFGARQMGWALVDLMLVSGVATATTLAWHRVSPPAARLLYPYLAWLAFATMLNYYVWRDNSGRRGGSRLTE

In the case of `CN1C(=O)CN=C(c2ccc(Cl)cc2)c2cc(Cl)ccc21` [Ro5-4864], the “In vitro affinity for TSPO” value (TSPO [1]) is given as “low nanomolar range”.

In the case of `COc1ccc(OC)c(CN(C(=O)CF)c2ccccc2Oc2ccccc2)c1` [PBR06, N-fluoroacetyl-N-(2,5-dimethoxybenzyl)-2-phenoxyaniline], the “IC50, displacement of [^3H]PK 11195” value (TSPO [2]) is reported as “in the nanomolar range”.

In the case of `CCC(C)N(C)C(=O)c1cc2ccccc2c(-c2ccccc2Cl)n1` (centres unmarked) [PK 11195], the “In vitro affinity for TSPO” value (TSPO [1]) is given as “low nanomolar range”.

In the case of `COc1ccc(OC)c(CN(C(=O)C[18F])c2ccccc2Oc2ccccc2)c1` [[^18F]PBR06, ^18F-N-fluoroacetyl-N-(2,5-dimethoxybenzyl)-2-phenoxyaniline], the K1/k2 (TSPO [3]; Brain, mean ± S.E., N = 3) is reported as 6.164 ± 2.049 mL/g, the “VT (total distribution volume)” value (TSPO [3]; Brain, mean ± S.E.) is reported as 13.07 ± 3.901 mL/g and the k3 (TSPO [3]; Brain, mean ± S.E., N = 3) is reported as 0.0714 ± 0.0261 min⁻¹. The k4 (TSPO [3]; Brain, mean ± S.E., N = 3) was 0.00945 ± 0.005532 min⁻¹, the K1/k2 (TSPO [3]; Tumor, mean ± S.E., N = 3) was 5.947 ± 1.982 mL/g and the “VT (total distribution volume)” value (TSPO [3]; Tumor, mean ± S.E.) was 63.90 ± 3.400 mL/g. The k3 (TSPO [3]; Tumor, mean ± S.E., N = 3) was 0.3870 ± 0.1592 min⁻¹, the Plasma clearance (TSPO [3]; after initial spike following tracer injection) was “rapidly cleared from plasma” and the “Total radioactivity in tumor tissue relative to normal brain” value (TSPO [3]; last 20 minutes of the 90 min PET scan, C6 glioma-bearing rats) was “three- to four-fold higher”. For the same compound, the “Displaceable binding of [^18F]PBR06 in tumor” value (TSPO [4]) was “approximately 75%”, the “Tumor activity after PBR06 injection, as % of peak tumor uptake” value (TSPO [4]) was “approximately 25%” and the “Fraction of plasma radioactivity” value ([5]; at 45 min after [^18F]PBR06, 15 min after cold PBR06 infusion) was 57%. For the same compound, the “Fraction of plasma radioactivity” value ([5]; printed 'at 2.8 min' (2 min sample after [^18F]PBR06 injection)) was 75% and the “Fraction of plasma radioactivity” value ([5]; printed 'at 30 min' (25 min sample after [^18F]PBR06 injection)) was 38%.
